# Patent US9079895B2, “Morpholino compounds, uses and methods” (University of Dundee, priority 2012, dated 2015)
# Columns and labels:
# 5HT7 receptor = 5HT7 receptor (Homo sapiens (Human), UniProt P34969); test: Secondary radioligand binding assay, 5HT7; parameters: key to Ki 5HT7: “—” indicates that a binding interaction was not detected; details: average of at least two experiments;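 further: competition of test compound with radioligand for binding to membranes from transfected cell lines, 1.5 h incubation at room temperature, filter-bound radioactivity read by liquid scintillation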
# Experimental: (§8) Assay Buffer: Standard Binding Buffer (50 mM Tris-HCl, 10 mM MgCl2, 1 mM EDTA, pH 7.4)
# (§9) Membrane Fraction Source: Transiently or stably transfected cell lines (e.g., HEK293, COS, CHO, NIH3T3)
# [1] = target: Alpha1B adrenergic receptor (Homo sapiens (Human), UniProt P35368); test: Secondary radioligand binding assay, Alpha1B; parameters: key to Ki Alpha1B: “—” indicates that a binding interaction was not detected; details: average of at least two experiments
# Description: 1. Secondary Radioligand Binding Assays The detailed experimental protocols for the radioligand and functional receptor assays are available on the NIMH PDSP website at http://pdsp.med.unc.edu/UNC-CH %20Protocol %20Book.pdf. Raw data (dpm) representing total radioligand binding (i.e. specific+non-specific binding) are plotted as a function of the logarithm of the molar concentration of the competitor (i.e. test or reference compound). […] C. Adrenergic Receptors: α1A, α1B, α2A, α2B, α2C, β1, β2, β3 Assay Buffers: For α1 receptors, α1 Binding Buffer (20 mM Tris-HCl, 145 mM NaCl, pH 7.4); for α2 receptors, α2 Binding Buffer (50 mM Tris-HCl, 5 mM MgCl2, pH 7.7); for β receptors, β Binding Buffer (50 mM Tris-HCl, 3 mM MnCl2, pH 7.7) Membrane Fraction Source: Transiently or stably transfected cell lines (e.g. HEK293, COS, CHO, NIH3T3) Protocol adapted from Arango et al. […] (1990), Gen. Psychiatry, 47: 1038-1047. The method is carried out in the manner described for the serotonin receptor assay above, except where described below. Eleven dilutions (5× assay concentration) of the test and reference (see Table 20) compounds are prepared in the appropriate buffer by serial dilution, as previously described. Radioligand is diluted to five times the assay concentration (see Table 21) in the appropriate buffer. […] Four rapid 500-μl washes are performed with chilled distilled water (for α1 and β receptors) or 0.1% polyethyleneimine (for α2 receptors) to reduce non-specific binding. Filters are placed in 6 ml scintillation tubes and allowed to dry overnight and the samples are treated to obtain data as described above. [table]
# dopamine D5 receptor = dopamine D5 receptor (Homo sapiens (Human), UniProt P21918); test: Secondary radioligand binding assay, D5; parameters: key to Ki D5: “—” indicates that a binding interaction was not detected; details: average of at least two experiments
# Experimental: (§1) 1. Secondary Radioligand Binding Assays
# (§2) The detailed experimental protocols for the radioligand and functional receptor assays are available on the NIMH PDSP website at http://pdsp.med.unc.edu/UNC-CH %20Protocol %20Book.pdf.
# (§3) Radioligand is diluted to five times the assay concentration (see Table 18) in Standard Binding Buffer. Typically, the assay concentration of radioligand is a value between one half the KD and the KD of a particular radioligand at its target. 50 μl aliquots of radioligand are dispensed into the wells of a 96-well plate containing 100 μl of Standard Binding Buffer. Then, duplicate 50 μl aliquots of the test and reference compound dilutions are added.
# (§4) The 250 μl reactions are incubated at room temperature and shielded from light (to prevent photolysis of light-sensitive ligands) for 1.5 hours, then harvested by rapid filtration onto Whatman GF/B glass fiber filters pre-soaked with 0.3% polyethyleneimine using a 96-well Brandel harverster. Four rapid 500 μl washes are performed with chilled Standard Binding Buffer to reduce non-specific binding. Filters are placed in 6 ml scintillation tubes and allowed to dry overnight. The next day, 4 ml of EcoScint scintillation cocktail (National Diagnostics) are added to each tube. The tubes are capped, labeled, and counted by liquid scintillation counting. […] The filter mats are dried, then scintillant is melted onto the filters and the radioactivity retained on the filters is counted in a Microbeta scintillation counter.
# (§5) Raw data (dpm) representing total radioligand binding (i.e. specific+non-specific binding) are plotted as a function of the logarithm of the molar concentration of the competitor (i.e. test or reference compound).
# (§6) B. Dopamine Receptors: D1, D2, D3, D4, D5 Assay Buffers: Dopamine Binding Buffer (50 mM NaCl, 50 mM HEPES-HCl, 5 mM MgCl2, 0.5 mM EDTA, pH 7.4) Membrane Fraction Source: Transiently or stably transfected cell lines (e.g. HEK293, COS, CHO, NIH3T3)
# (§7) The method is carried out in the manner described for the serotonin receptor assay above. Eleven dilutions (5× assay concentration) of the test and reference (see Table 19) compounds are prepared in Dopamine Binding Buffer by serial dilution, as previously described. Radioligand is diluted to five times the assay concentration (see Table 20) in Dopamine Binding Buffer.
# 5HT2b receptor = 5HT2b receptor (Homo sapiens (Human), UniProt P41595); test: Secondary radioligand binding assay, 5HT2b; parameters: key to Ki 5HT2b: “—” indicates that a binding interaction was not detected; details: average of at least two experiments;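 further: competition binding against a radioligand on membranes from transfected cell lines, 1.5 h incubation at room temperature, filter-retained radioactivity counted by liquid scintillation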
# Experimental: as §8, §9
# 5HT1a receptor = 5HT1a receptor (Homo sapiens (Human), UniProt P08908); test: Secondary radioligand binding assay, 5HT1a; details: average of at least two experiments
# Experimental: as §8, §9
# 5HT1e receptor = 5HT1e receptor (Homo sapiens (Human), UniProt P28566); test: Secondary radioligand binding assay, 5HT1e; parameters: key: “—” indicates that a binding interaction was not detected; details: average of at least two experiments;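 further: competition binding against a radioligand on membranes from transfected cell lines, 1.5 h at room temperature, bound radioactivity counted by liquid scintillation after filtration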
# 5HT3 receptor = 5HT3 receptor (Homo sapiens (Human), UniProt P46098); test: Secondary radioligand binding assay, 5HT3; parameters: key: “—” indicates that a binding interaction was not detected; details: average of at least two experiments;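 further: radioligand competition binding on membranes from transfected cell lines, 1.5 h incubation at room temperature, filter-retained radioactivity measured by liquid scintillation counting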
# Experimental: as §8, §9
# 5HT6 receptor = 5HT6 receptor (Homo sapiens (Human), UniProt P50406); test: Secondary radioligand binding assay, 5HT6; parameters: key: “—” indicates that a binding interaction was not detected; details: average of at least two experiments;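 further: competition displacement of radioligand from membranes of transfected cell lines expressing the receptor, 1.5 h at room temperature, bound radioactivity counted by scintillation after filtration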
# dopamine D4 receptor = dopamine D4 receptor (Homo sapiens (Human), UniProt P21917); test: Secondary radioligand binding assay, D4; details: receptor binding; average of at least two experiments; read-out: Ki D4
# Experimental: as §1, §2, §3, §4, §5, §6, §7
# 5HT1d receptor = 5HT1d receptor (Homo sapiens (Human), UniProt P28221); test: Secondary radioligand binding assay, 5HT1d; parameters: key to Ki 5HT1d: “—” indicates that a binding interaction was not detected; details: average of at least two experiments;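 further: competition binding against a radioligand on membranes from transfected cell lines, 1.5 h at room temperature, filter-retained radioactivity counted by liquid scintillation, total binding plotted versus log competitor concentration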
# Experimental: as §8, §9
# dopamine D1 receptor = dopamine D1 receptor (Homo sapiens (Human), UniProt P21728); test: Secondary radioligand binding assay, D1; parameters: key to Ki D1: “—” indicates that a binding interaction was not detected; details: average of at least two experiments
# Experimental: as §1, §2, §3, §4, §5, §6, §7
# 5HT2a receptor = 5HT2a receptor (Homo sapiens (Human), UniProt P28223); test: Secondary radioligand binding assay, 5HT2a; details: average of at least two experiments
# Experimental: as §8, §9
# 5HT2c receptor = 5HT2c receptor (Homo sapiens (Human), UniProt P28335); test: Secondary radioligand binding assay, 5HT2c; details: average of at least two experiments
# Experimental: as §8, §9
# Sequence of 5HT2b receptor (P41595 whole entry): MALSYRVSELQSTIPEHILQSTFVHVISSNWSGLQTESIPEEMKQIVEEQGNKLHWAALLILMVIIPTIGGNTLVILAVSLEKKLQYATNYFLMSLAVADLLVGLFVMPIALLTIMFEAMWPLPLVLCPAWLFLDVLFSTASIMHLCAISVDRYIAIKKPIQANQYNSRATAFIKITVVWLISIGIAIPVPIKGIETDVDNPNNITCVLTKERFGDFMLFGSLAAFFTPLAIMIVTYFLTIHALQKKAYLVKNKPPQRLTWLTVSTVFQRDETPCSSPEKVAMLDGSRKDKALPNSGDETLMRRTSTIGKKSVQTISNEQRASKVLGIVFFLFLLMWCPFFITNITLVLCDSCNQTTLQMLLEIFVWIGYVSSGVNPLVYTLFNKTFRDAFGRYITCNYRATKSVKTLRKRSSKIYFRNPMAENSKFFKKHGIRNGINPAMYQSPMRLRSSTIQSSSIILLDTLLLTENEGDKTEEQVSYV
# Sequence of 5HT6 receptor (P50406 whole entry): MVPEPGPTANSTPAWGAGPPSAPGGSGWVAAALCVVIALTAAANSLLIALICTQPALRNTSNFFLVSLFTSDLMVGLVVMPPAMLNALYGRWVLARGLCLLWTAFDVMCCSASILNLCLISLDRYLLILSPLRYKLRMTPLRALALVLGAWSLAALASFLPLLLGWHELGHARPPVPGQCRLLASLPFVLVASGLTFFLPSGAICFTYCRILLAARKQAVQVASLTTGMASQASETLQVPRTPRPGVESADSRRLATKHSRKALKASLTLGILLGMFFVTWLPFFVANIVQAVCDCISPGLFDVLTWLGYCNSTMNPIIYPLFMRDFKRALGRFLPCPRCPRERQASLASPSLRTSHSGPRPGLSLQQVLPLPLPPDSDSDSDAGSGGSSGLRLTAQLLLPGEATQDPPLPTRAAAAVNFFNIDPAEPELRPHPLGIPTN
# Sequence of 5HT1a receptor (P08908 whole entry): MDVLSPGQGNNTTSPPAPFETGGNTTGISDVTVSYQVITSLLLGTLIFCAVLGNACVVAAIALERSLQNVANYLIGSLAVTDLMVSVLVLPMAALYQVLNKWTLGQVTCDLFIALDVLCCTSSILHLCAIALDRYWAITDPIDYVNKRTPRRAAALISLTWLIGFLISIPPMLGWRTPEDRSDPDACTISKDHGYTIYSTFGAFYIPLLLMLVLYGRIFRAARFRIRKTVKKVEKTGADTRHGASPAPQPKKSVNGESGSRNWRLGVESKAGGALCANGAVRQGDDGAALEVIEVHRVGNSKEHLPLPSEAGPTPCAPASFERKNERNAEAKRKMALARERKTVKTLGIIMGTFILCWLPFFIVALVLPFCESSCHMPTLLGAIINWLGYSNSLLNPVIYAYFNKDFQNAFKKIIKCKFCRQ
# Sequence of 5HT3 receptor (P46098 24-478): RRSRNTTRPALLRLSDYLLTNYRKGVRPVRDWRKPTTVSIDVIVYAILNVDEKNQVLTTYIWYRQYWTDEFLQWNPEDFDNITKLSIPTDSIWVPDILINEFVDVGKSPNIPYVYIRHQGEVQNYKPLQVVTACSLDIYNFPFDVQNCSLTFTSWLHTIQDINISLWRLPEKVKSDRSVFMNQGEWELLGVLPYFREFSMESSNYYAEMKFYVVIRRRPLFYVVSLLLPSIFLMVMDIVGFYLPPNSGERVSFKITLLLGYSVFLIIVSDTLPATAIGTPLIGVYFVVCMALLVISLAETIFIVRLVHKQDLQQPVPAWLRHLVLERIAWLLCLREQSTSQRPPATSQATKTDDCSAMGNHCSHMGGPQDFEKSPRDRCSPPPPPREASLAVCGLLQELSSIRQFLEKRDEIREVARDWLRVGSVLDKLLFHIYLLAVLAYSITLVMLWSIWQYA
# Sequence of 5HT1e receptor (P28566 whole entry): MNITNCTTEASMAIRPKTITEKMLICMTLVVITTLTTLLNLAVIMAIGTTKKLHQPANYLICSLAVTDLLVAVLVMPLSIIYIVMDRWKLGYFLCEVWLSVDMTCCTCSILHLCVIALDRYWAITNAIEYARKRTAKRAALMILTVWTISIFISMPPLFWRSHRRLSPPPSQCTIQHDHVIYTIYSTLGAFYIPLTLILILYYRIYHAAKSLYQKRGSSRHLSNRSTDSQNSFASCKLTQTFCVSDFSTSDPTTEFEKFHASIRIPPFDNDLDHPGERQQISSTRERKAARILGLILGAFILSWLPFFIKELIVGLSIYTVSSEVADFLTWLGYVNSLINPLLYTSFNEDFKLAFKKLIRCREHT
# Sequence of dopamine D5 receptor (P21918 whole entry): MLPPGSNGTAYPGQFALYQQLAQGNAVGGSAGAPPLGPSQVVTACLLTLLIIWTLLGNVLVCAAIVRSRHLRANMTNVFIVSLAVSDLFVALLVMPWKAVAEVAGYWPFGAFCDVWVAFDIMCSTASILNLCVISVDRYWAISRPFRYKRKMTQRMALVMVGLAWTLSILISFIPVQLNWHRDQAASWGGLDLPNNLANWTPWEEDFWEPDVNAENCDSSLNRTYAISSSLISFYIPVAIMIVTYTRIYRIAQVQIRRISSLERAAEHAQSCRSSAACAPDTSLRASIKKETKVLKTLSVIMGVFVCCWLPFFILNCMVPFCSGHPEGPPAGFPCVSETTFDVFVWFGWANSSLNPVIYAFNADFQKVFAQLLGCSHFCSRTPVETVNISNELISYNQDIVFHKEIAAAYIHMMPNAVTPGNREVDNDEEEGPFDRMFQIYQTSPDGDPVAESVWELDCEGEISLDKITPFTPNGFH
# Sequence of 5HT1d receptor (P28221 whole entry): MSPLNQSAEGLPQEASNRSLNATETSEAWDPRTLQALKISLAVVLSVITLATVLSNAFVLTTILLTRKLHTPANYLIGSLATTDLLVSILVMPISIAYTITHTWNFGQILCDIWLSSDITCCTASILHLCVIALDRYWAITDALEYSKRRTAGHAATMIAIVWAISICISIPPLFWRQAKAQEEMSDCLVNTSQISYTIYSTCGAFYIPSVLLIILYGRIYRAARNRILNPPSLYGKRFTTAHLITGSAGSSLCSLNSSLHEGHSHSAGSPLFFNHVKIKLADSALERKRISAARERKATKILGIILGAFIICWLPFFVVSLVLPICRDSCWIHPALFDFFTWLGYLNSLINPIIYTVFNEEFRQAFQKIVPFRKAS
# Sequence of dopamine D1 receptor (P21728 whole entry): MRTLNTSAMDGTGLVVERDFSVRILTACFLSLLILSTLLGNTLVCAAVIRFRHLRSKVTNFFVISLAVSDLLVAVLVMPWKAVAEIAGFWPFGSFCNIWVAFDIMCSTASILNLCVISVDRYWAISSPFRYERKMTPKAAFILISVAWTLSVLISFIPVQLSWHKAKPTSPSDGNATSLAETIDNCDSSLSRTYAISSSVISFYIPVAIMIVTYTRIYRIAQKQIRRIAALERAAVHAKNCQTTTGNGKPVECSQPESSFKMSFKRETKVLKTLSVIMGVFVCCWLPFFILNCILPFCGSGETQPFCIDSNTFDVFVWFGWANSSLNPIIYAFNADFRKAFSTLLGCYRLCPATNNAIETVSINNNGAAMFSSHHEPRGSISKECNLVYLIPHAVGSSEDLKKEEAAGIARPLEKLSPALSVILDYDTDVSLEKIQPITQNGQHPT
# Sequence of dopamine D4 receptor (P21917 whole entry, species assumed): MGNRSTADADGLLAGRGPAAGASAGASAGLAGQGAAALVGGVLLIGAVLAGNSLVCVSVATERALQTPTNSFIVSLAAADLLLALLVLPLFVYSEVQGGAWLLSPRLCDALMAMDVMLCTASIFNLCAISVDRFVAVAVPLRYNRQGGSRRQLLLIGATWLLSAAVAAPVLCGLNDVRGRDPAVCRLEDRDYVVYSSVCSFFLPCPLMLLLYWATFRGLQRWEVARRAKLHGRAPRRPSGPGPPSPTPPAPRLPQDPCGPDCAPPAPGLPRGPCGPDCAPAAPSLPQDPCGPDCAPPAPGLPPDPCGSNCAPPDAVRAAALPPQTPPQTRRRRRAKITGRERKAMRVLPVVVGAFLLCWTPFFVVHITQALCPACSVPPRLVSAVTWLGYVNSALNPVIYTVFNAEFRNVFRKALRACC
# Sequence of 5HT7 receptor (P34969 whole entry): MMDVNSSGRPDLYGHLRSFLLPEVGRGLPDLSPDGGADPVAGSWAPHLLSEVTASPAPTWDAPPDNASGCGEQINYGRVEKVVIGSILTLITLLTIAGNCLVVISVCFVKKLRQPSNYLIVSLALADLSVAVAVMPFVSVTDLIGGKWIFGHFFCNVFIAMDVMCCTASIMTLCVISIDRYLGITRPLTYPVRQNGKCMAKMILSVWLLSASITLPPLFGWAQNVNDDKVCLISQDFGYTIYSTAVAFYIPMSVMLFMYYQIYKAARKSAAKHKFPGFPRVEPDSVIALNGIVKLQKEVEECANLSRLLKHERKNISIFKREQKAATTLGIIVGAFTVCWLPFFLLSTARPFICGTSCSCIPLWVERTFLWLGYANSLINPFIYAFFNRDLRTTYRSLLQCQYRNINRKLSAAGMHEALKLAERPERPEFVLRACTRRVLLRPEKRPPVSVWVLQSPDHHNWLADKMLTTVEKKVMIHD
# Sequence of Alpha1B adrenergic receptor (P35368 whole entry): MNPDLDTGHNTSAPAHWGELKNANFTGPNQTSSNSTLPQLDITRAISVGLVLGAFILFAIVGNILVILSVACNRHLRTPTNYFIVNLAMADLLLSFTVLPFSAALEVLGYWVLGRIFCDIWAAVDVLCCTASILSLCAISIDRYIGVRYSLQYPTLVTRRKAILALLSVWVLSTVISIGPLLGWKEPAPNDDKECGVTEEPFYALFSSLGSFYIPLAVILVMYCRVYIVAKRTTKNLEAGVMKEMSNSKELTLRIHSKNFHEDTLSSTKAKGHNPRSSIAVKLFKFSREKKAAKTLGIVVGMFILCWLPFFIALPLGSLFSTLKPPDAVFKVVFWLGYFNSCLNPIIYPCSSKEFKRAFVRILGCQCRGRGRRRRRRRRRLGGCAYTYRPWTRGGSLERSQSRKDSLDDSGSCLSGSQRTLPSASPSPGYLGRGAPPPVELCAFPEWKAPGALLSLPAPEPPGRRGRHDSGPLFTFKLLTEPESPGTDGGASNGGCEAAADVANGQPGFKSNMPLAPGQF
SMILES,Ki 5HT7 (5HT7 receptor),Ki Alpha1B [1],Ki D5 (dopamine D5 receptor),Ki (5HT2b receptor),Ki (5HT1a receptor),Ki 5HT1e (5HT1e receptor),Ki 5HT3 (5HT3 receptor),Ki 5HT6 (5HT6 receptor),Ki (dopamine D4 receptor),Ki 5HT1d (5HT1d receptor),Ki D1 (dopamine D1 receptor),Ki (5HT2a receptor),Ki (5HT2c receptor),Ki (dopamine D1 receptor),Ki (dopamine D5 receptor),Ki 5HT2b (5HT2b receptor),Ki [1],Ki (5HT1d receptor)
"c1ccc(OC[C@H]2CN(CCN3CCc4ccccc43)CCO2)nc1 [Compound 15r, (R)-4-(2-(Indolin-1-yl)ethyl)-2-((pyridin-2-yloxy)methyl)morpholine]",—,—,—,600 nM,2880 nM,—,—,—,814 nM,—,—,,,,,,,
"Cc1ccnc(C)c1OC[C@H]1CN(CCN2CCc3ccccc32)CCO1 [Compound 29r, (R)-2-(((2,4-Dimethylpyridin-3-yl)oxy)methyl)-4-(2-(indolin-1-yl)ethyl)morpholine]",—,—,—,1330 nM,,—,—,—,4950 nM,—,—,> 10000 nM,,,,,,
"O=C(CN1CCO[C@H](COc2cccc(Cl)c2)C1)N1CCc2ccccc21 [Compound 22s, (S)-2-(2-((3-Chlorophenoxy)methyl)morpholino)-1-(indolin-1-yl)ethanone]",—,—,—,1100 nM,1390 nM,—,—,—,2860 nM,—,—,2720 nM,,,,,,
"O=C(CN1CCO[C@@H](COc2cccc(Cl)c2)C1)N1CCc2ccccc21 [Compound 22r, (R)-2-(2-((3-chlorophenoxy)methyl)morpholino)-1-(indolin-1-yl)ethanone]",—,—,—,2360 nM,384 nM,—,—,—,536 nM,—,—,2070 nM,,,,,,
Cc1ccnc(OC[C@H]2CN(CC(=O)N3c4ccccc4CC3C)CCO2)c1 (stereo partly shown) [Compound 70],—,—,—,3460 nM,6370 nM,—,—,—,,—,,,6370 nM,> 10000 nM,,,,
"c1cncc(OC[C@@H]2CN(CCN3CCc4ccccc43)CCO2)c1 [Compound 21s, (S)-4-(2-(Indolin-1-yl)ethyl)-2-((pyridin-3-yloxy)methyl)morpholine]",—,—,,,10000 nM,—,—,—,182 nM,—,,3540 nM,,> 10000 nM,> 10000 nM,—,,
"Clc1cccc(OC[C@@H]2CN(CCN3CCc4ccccc43)CCO2)c1 [Compound 23s, (S)-2-((3-chlorophenoxy)methyl)-4-(2-(indolin-1-yl)ethyl)morpholine]",—,,—,,,—,—,—,,,,1280 nM,3390 nM,2040 nM,,,6640 nM,1120 nM
"Cc1ccnc(OC[C@H]2CN(CCN3CCc4ccccc43)CCO2)c1 [Compound 17r, (R)-4-(2-(Indolin-1-yl)ethyl)-2-(((4-methylpyridin-2-yl)oxy)methyl)morpholine]",—,—,—,788 nM,,—,—,—,1930 nM,—,,,,> 10000 nM,,,,
CC1Cc2ccccc2N1C(=O)CN1CCO[C@H](COc2cccc(Cl)c2)C1 (stereo partly shown) [Compound 64],—,—,—,441 nM,644 nM,—,—,—,2390 nM,—,—,4540 nM,,,,,,
"c1cncc(OC[C@H]2CN(CCN3CCc4ccccc43)CCO2)c1 [Compound 21r, (R)-4-(2-(Indolin-1-yl)ethyl)-2-((pyridin-3-yloxy)methyl)morpholine]",—,—,—,,,—,—,—,2410 nM,—,,3580 nM,,> 10000 nM,,—,,
